Read-outs that look alike come from different tables or passages of the source.
Tested on: HCV pseudoparticles, genotype 1a HCV E1 and E2 envelope (H77C isolate)
Test: HCV pseudoparticle infection assay (luciferase reporter, Huh7 cells)
Type: cell-based, HCV genotype 1a (H77C)
Settings: Hepatitis C virus, Huh-7, 48 h
[1] = read-out: EC50 (nM) 1a (H77C), HCV pseudoparticle entry into Huh7 cells, luciferase 2 days after infection, class symbol
[2] = HCV pseudoparticle entry into Huh7 cells, luciferase 2 days after infection, class symbol, read-out: EC50 (nM) 1a (H77C)
[3] = read-out: EC50 (nM) 1a (H77C), HCV pseudoparticle entry into Huh7 cells, luciferase 2 days after infection, average of duplicates

| SMILES | EC50 [1] [nM] | also measured |
| --- | --- | --- |
| CC1(C)CNC(=O)c2ccc(cc2)Nc2nc(nc(OCC(F)(F)F)n2)NCc2ccc(c(Cl)c2)OCCCN(C(=O)CN)C1 [Example 1009] | 0.01 to 10 |  |
| CC1(C)CNC(=O)c2ccc(cc2)Nc2nc(nc(OCC(F)(F)F)n2)NCc2ccc(c(Cl)c2)OCCCN(C(=O)Oc2ccc([N+](=O)[O-])cc2)C1 [Example 2008] |  | EC50 [2]: 0.01 to 10 nM |
| CC1(C)CNC(=O)c2ccc(cc2)Nc2nc(nc(OCC(F)(F)F)n2)NCc2ccc(c(Cl)c2)OCCCN(C(=O)/C=C/c2ccoc2)C1 [Example 1006] | 0.01 to 10 |  |
| CC1(C)CNC(=O)c2ccc(cc2)Nc2nc(nc(OCC(F)(F)F)n2)NCc2ccc(c(Cl)c2)OCCCN(C(=O)CCC(=O)O)C1 [Example 1008] | 10 to 1000 | EC50 [3]: 23.9 nM |
| CC1(C)CNC(=O)c2ccc(cc2)Nc2nc(nc(OCC(F)(F)F)n2)NCc2ccc(c(Cl)c2)OCCCN(C(=O)OCCOCc2ccccc2)C1 [Example 2013] | 0.01 to 10 |  |
| CC(C)[C@@H]1CC[C@@H](C)C[C@H]1OC(=O)N1CCCOc2ccc(cc2Cl)CNc2nc(nc(OCC(F)(F)F)n2)Nc2ccc(cc2)C(=O)NCC(C)(C)C1 [Example 2005] | 0.01 to 10 | EC50 [3]: 2.85 nM |
| CC1(C)CNC(=O)c2ccc(cc2)Nc2nc(nc(OCC(F)(F)F)n2)NCc2ccc(c(Cl)c2)OCCCN(C(=O)CCc2ccccc2)C1 [Example 1003] | 0.01 to 10 |  |
| CC1(C)CNC(=O)c2ccc(cc2)Nc2nc(nc(OCC(F)(F)F)n2)NCc2ccc(c(Cl)c2)OCCCN(C(=O)Oc2ccc3ccccc3c2)C1 [Example 2010] |  | EC50 [2]: 0.01 to 10 nM |
| Cc1oc(=O)oc1COC(=O)N1CCCOc2ccc(cc2Cl)CNc2nc(nc(OCC(F)(F)F)n2)Nc2ccc(cc2)C(=O)NCC(C)(C)C1 [Example 2014] | 0.01 to 10 |  |
| CC1(C)CNC(=O)c2ccc(cc2)Nc2nc(nc(OCC(F)(F)F)n2)NCc2ccc(c(Cl)c2)OCCCN(S(=O)(=O)/C=C/c2ccccc2)C1 [Example 4001] | 0.01 to 10 | EC50 [3]: 0.555 nM |
| CC1(C)CNC(=O)c2ccc(cc2)Nc2nc(nc(OCC(F)(F)F)n2)NCc2ccc(c(Cl)c2)OCCCN(C(=O)Cc2cccnc2)C1 [Example 1016] | 0.01 to 10 |  |
| Cc1oc(=O)oc1COC(=O)N1CCCOc2ccc(cc2Cl)CNc2nc(nc(OCc3ccc(C(C)C)cc3)n2)Nc2ccc(cc2)C(=O)NCC(C)(C)C1 [Example 2016] | 0.01 to 10 | EC50 [3]: 0.109 nM |
| CC1(C)CNC(=O)c2ccc(cc2)Nc2nc(nc(OCC(F)(F)F)n2)NCc2ccc(c(Cl)c2)OCCCN(C(=O)c2ccccc2)C1 [Example 1001] | 0.01 to 10 | EC50 [3]: 0.864 nM |
| C#CCOC(=O)N1CCCOc2ccc(cc2Cl)CNc2nc(nc(OCC(F)(F)F)n2)Nc2ccc(cc2)C(=O)NCC(C)(C)C1 [Example 2001] | 0.01 to 10 |  |
| CC1(C)CNC(=O)c2ccc(cc2)Nc2nc(nc(OCC(F)(F)F)n2)NCc2ccc(c(Cl)c2)OCCCN(C(=O)CCc2ccncc2)C1 [Example 1014] | 0.01 to 10 |  |
| CC(C)[C@H]1CC[C@H](C)C[C@@H]1OC(=O)N1CCCOc2ccc(cc2Cl)CNc2nc(nc(OCC(F)(F)F)n2)Nc2ccc(cc2)C(=O)NCC(C)(C)C1 [Example 2004] | 0.01 to 10 |  |
| C=COC(=O)N1CCCOc2ccc(cc2Cl)CNc2nc(nc(OCC(F)(F)F)n2)Nc2ccc(cc2)C(=O)NCC(C)(C)C1 [Example 2002] | 0.01 to 10 |  |
| CC1(C)CNC(=O)c2ccc(cc2)Nc2nc(nc(OCC(F)(F)F)n2)NCc2ccc(c(Cl)c2)OCCCN(C(=O)CCc2nc3ccccc3s2)C1 [Example 1013] | 0.01 to 10 |  |

| SMILES | EC50 [1] [nM] | also measured |
| --- | --- | --- |
| Cc1oc(=O)oc1CN1CCCOc2ccc(cc2Cl)CN(Cc2oc(=O)oc2C)c2nc(nc(OCC(F)(F)F)n2)Nc2ccc(cc2)C(=O)NCC(C)(C)C1 [Example 5002] | 0.01 to 10 |  |
| CC1(C)CNC(=O)c2ccc(cc2)Nc2nc(nc(OCC(F)(F)F)n2)NCc2ccc(c(Cl)c2)OCCCN(C(=O)[C@@H]2C[C@H]2c2ccccc2)C1 [Example 1011] | 0.01 to 10 |  |
| CC1(C)CNC(=O)c2ccc(cc2)Nc2nc(nc(OCC(F)(F)F)n2)NCc2ccc(c(Cl)c2)OCCCN(C(=O)CCC(=O)c2ccccc2)C1 [Example 1017] | 0.01 to 10 |  |
| CC1(C)CNC(=O)c2ccc(cc2)Nc2nc(nc(OCC(F)(F)F)n2)NCc2ccc(c(Cl)c2)OCCCN(C(=O)Oc2ccccc2)C1 [Example 2006] |  | EC50 [2]: 0.01 to 10 nM |
| CC1(C)CNC(=O)c2ccc(cc2)Nc2nc(nc(OCC(F)(F)F)n2)NCc2ccc(c(Cl)c2)OCCCN(C(=O)Oc2cccc3ccccc23)C1 [Example 2009] |  | EC50 (HCV pseudoparticle entry into Huh7 cells, luciferase 2 days after infection, average of duplicates, read-out: EC50 (nM) 1a (H77C)): 1.26 nM; EC50 [2]: 0.01 to 10 nM |
| Cc1oc(=O)oc1COC(=O)N1CCCOc2ccc(cc2Cl)CNc2nc(nc(OCc3ccc(C(F)(F)F)cc3)n2)Nc2ccc(cc2)C(=O)NCC(C)(C)C1 [Example 2015] | 0.01 to 10 |  |
| CC1(C)CNC(=O)c2ccc(cc2)Nc2nc(nc(OCC(F)(F)F)n2)NCc2ccc(c(Cl)c2)OCCCN(C(=O)/C=C/c2ccco2)C1 [Example 1007] | 0.01 to 10 |  |
| CC1(C)CNC(=O)c2ccc(cc2)Nc2nc(nc(OCC(F)(F)F)n2)NCc2ccc(c(Cl)c2)OCCCN(C(=O)c2ncoc2-c2ccccc2)C1 [Example 1012] | 0.01 to 10 |  |
| CC1(C)CNC(=O)c2ccc(cc2)Nc2nc(nc(OCC(F)(F)F)n2)NCc2ccc(c(Cl)c2)OCCCN(C#N)C1 [Example 3001] | 0.01 to 10 |  |
| C=CCOC(=O)N1CCCOc2ccc(cc2Cl)CNc2nc(nc(OCC(F)(F)F)n2)Nc2ccc(cc2)C(=O)NCC(C)(C)C1 [Example 2003] | 0.01 to 10 |  |
| CC1(C)CNC(=O)c2ccc(cc2)Nc2nc(nc(OCC(F)(F)F)n2)NCc2ccc(c(Cl)c2)OCCCN(C(=O)CC(C)(C)n2cccc2)C1 [Example 1015] | 0.01 to 10 | EC50 [3]: 0.932 nM |
| Cc1oc(=O)oc1CN1CCCOc2ccc(cc2Cl)CNc2nc(nc(OCC(F)(F)F)n2)Nc2ccc(cc2)C(=O)NCC(C)(C)C1 [Example 5001] | 0.01 to 10 | EC50 [3]: 7.67 nM |
| CC1(C)CNC(=O)c2ccc(cc2)Nc2nc(nc(OCC(F)(F)F)n2)NCc2ccc(c(Cl)c2)OCCCN(C(=O)/C=C/c2ccccc2)C1 [Example 1005] | 0.01 to 10 | EC50 [3]: 1.51 nM |
| CC1(C)CNC(=O)c2ccc(cc2)Nc2nc(nc(OCC(F)(F)F)n2)NCc2ccc(c(Cl)c2)OCCCN(C(=O)Cc2ccccc2)C1 [Example 1002] | 0.01 to 10 |  |
| CC1(C)CNC(=O)c2ccc(cc2)Nc2nc(nc(OCc3cccnc3)n2)NCc2ccc(c(Cl)c2)OCCCN(C(=O)OCc2cccnc2)C1 [Example 2011] | 10 to 1000 |  |
| CC1(C)CNC(=O)c2ccc(cc2)Nc2nc(nc(OCC(F)(F)F)n2)NCc2ccc(c(Cl)c2)OCCCN(C(=O)CNC(=O)OC(C)(C)C)C1 [Example 1010] | 0.01 to 10 |  |
| CC1(C)CNC(=O)c2ccc(cc2)Nc2nc(nc(OCC(F)(F)F)n2)NCc2ccc(c(Cl)c2)OCCCN(C(=O)CCCc2ccccc2)C1 [Example 1004] | 0.01 to 10 |  |
| COc1ccc(OC(=O)N2CCCOc3ccc(cc3Cl)CNc3nc(nc(OCC(F)(F)F)n3)Nc3ccc(cc3)C(=O)NCC(C)(C)C2)cc1 [Example 2007] |  | EC50 [2]: 0.01 to 10 nM |
